Reference: patent EP0920324B1, “PURE BIOLOGICALLY ACTIVE COLISTIN, ITS COMPONENTS AND A COLISTIN FORMULATION FOR TREATMENT OF PULMONARY INFECTIONS” (PATHOGENESIS CORPORATION, priority 1996, dated 1998)
Where a SMILES comes first, the peptide text is derived from it. Bridges are numbered along the chain shown (N, C = ends). [ ]: non-standard residue; d: D form. The star is where a group is joined. Octanoyl(6-Me) = CCC(C)CCCCC(=O)*; Dab = NCC[CH](N)C(=O)O

Assays:
[1] = system: Pseudomonas aeruginosa; assay: Time kill kinetic studies (bactericidal activity); type: cell-based
Experimental: Henry D. Isenberg, ASM, Washington, DC (1992). The exact procedure is described in Example 14.
Briefly, tests were similar to those used for determining MICs, except that the final test volume was larger (10 mL) to allow sampling at various time points. […] Cultures were incubated at 37°C. At initial set-up and at various time-points, cultures were plated, with or without further dilution, onto sheep blood agar plates. Plates were incubated for 18-24 hours, and the number of CFU/mL was determined and plotted to determine the percentage of surviving organisms and the time required to achieve 99.9% killing. Results are seen in Figure 15.
Colony-forming unit (CFU) per ml were determined and plotted against drug exposure time in hours.
Time kill kinetic studies were performed as described in (Antimicrobial Susceptibility Testing, Section 5.16. Tests to assess bactericidal activity, in Clinical Microbiology Procedure Handbook (supra).
Tests were set in the same way used for determining MICs (Example 13), except that the final test volume was larger (10 mL) to allow sampling at various time points. Cultures were incubated at 37°C. At initial set-up and at various desired time-points, cultures were sampled and plated (with or without further dilution) onto sheep blood agar plates. Plates were incubated for 18-24 hours, and the number of CFU/mL was determined and plotted to determine the percentage of surviving organisms and the time required to achieve 99.9% killing.

[2] = Solution pH monitored over time after dissolution; type: physicochemical; settings: 10.0, 15.0 and 20.0 mg/ml in water
Experimental: These values correspond to concentrations of 3.7 mg/ml, 5.6 mg/ml and 7.4 mg/ml colistin base equivalent. Solution pH was monitored continuously at various times from 1 minute to 180 minutes and pH values and times were recorded.
Determination of component IV stability at physiologic pH was made by dissolving purified colistin component IV sulfate or hydrochloride at a concentration of 20 mg/ml in sterile water containing 120 mM NaCl. The solution was mixed and pH was monitored. A 10 N NaOH solution was used to adjust the solution pH to 6.95-7.00. Results are seen in Figure 16.
These values correspond to concentrations of 3.7 mg/ml, 5.6 mg/ml and 7.4 mg/ml colistin base equivalent. Solution pH was then monitored continuously using a Beckman Phi-10 pH meter fitted with a Beckman Futura Plus combination electrode calibrated at pH 4.0 and 7.0 as per manufacturer's instructions prior to use. At various times from 1 minute to 180 minutes, pH values and times were recorded.

[3] = Jet nebulization (Pari LC Jet nebulizer), aerosol characterized by laser diffraction particle analyzer; type: physicochemical
Experimental: Colistin component IV sulfate was dissolved in 120 mM sodium chloride, and the pH was adjusted to 7.0 with 1 molar sodium hydroxide.
Four ml of solution to be nebulized was placed in a Pari LC Jet nebulizer fitted with a Pulmonaide Compressor (DeVilbiss Model 5650D) with an air flow rate of 4-6 liters/minute. Aerosols generated are characterized by passing through a laser diffraction particle analyzer (Malvern Mastersizer X). Each formulation was analyzed multiple times to determine reproducibility of results, which were expressed as total obscuration time, mass median average diameter, and respirable fraction.
Results are shown in Figure 18, which is a comparison of the-times required for aerosolization of 4 mL of the three solutions. The two drug solutions were analyzed three times, and saline was analyzed four times. Bars show standard deviations of measurements.
Colistin component IV sulfate or hydrochloride formulations were as described above in Example 15.
Four ml of solution to be nebulized was placed in a Pari LC Jet nebulizer fitted with a Pulmonaide Compressor, DeVilbiss Model 5650D, with an air flow rate of 4-6 liters/minute. Aerosol generated was characterized by passing through a Malvern Mastersizer X laser diffraction particle analyzer. Each formulation was analyzed multiple times to determine reproducibility of results, which were expressed as total obscuration time, mass median particle diameter, and respirable fraction.
Mass median particle diameters were expressed as average ± standard deviation (n) for aerosols.
Average respirable fractions were calculated as average percentage of particles ranging from 1 micron to 6 microns in diameter within the aerosol over time.

[4] = human, in vivo; cited from earlier work
[5] = human, in vivo, iv; cited from earlier work
[6] = human, in vivo, 1 h; cited from earlier work
[7] = Gravimetric titration with HCl to determine pKa
[8] = average ± standard deviation, n = 3, 20 mg/ml solutions

Molecule	eradication of the Pseudomonas aeruginosa organism ([1]; 8 µg/mL, at 4 hours of testing)	killing of test organism ([1]; 16 µg/mL, at 3 hours)	time at which over 5 logs killing was shown ([1]; 64µg/mL) [hours]	concentration required for a similar level of killing (over 5 logs within 2 hours) ([1]; freshly dissolved) [µg/ml]	pH of solution within 3 minutes [2]	mean aerosolization time ([3]; 4 mL of 20 mg/ml solution, colistin component IV sulfate in 120 mM NaCl, isotonic, pH balanced, colimycin in 1/4 N saline, n = 3) [min]	average respirable fraction (particles ranging from 1 micron to 6 microns in diameter) [3, 8] [percentage]	mass median particle diameter of the aerosol [3, 8] [microns]	patients reporting bronchoconstriction response as chest tightness [4]	occurrence of nephrotoxicity symptoms [5]	occurrence of neurotoxicity symptoms [5]	drug converted to colistin in an hour [6] [%]	pKa ([7]; free base suspended in deionized water, titrated with 1.21 M HCl)	pKa ([7]; water)
colimycin	did not, even at 4 hours of testing, eradicate the Pseudomonas aeruginosa organism	over 5 logs	1.5	32	> 7.5	10.53	58.77 ± 2.03	4.11 ± 0.29	approximately 65%	about 5 % cases	about 29 % cases	~3		
CCC(C)CCCCC(=O)NC(CCN)C(=O)NC(C(=O)NC(CCN)C(=O)NC1CCNC(=O)C(C(C)O)NC(=O)C(CCN)NC(=O)C(CCN)NC(=O)C(CC(C)C)NC(=O)C(CC(C)C)NC(=O)C(CCN)NC1=O)C(C)O (centres unmarked) [colistin component IV] ({Octanoyl(6-Me)}-[Dab]T[Dab][Dab][Dab]LL[Dab][Dab]T; lactam 4-C; configuration not given here)													approximately 9.0	~9
